Values of other authors, collected in patent US20090175934A1, “Extended Release Pharmaceutical Formulation of Venlafaxine and Method of Manufacturing the Same” (Jubilant Organosys Ltd., priority 2006, published 2009).
Where a name gives a salt, the structure may show the parent alone.

Columns and labels:
[1] = compressed tablets, therapeutic dosing
[2] = test system: patients; conditions: plural daily dosing regimen

SMILES: COc1ccc(C(CN(C)C)C2(O)CCCCC2)cc1 (stereo not drawn) [Venlafaxine hydrochloride]
- time until sub-therapeutic plasma levels are approached following administration [1]: about twelve hours
- patients experiencing nausea [2]: about forty five percent
- patients in whom vomiting occurs [2]: about seventeen percent
